Values joined by “and” are separate entries in the source; they are usually repeats but may differ in a detail not shown here. Equal entries are not always repeated. Where two headings read alike, the source gives them in different places.
Assays:
[1] = molecular target: T1, HNE (human neutrophil elastase) (Homo sapiens, UniProt P08246); test: HNE inhibition assay (fluorogenic substrate cleavage); assay type: biochemical
T1 construct: purchased Calbiochem
T1 sequence (P08246 30-267): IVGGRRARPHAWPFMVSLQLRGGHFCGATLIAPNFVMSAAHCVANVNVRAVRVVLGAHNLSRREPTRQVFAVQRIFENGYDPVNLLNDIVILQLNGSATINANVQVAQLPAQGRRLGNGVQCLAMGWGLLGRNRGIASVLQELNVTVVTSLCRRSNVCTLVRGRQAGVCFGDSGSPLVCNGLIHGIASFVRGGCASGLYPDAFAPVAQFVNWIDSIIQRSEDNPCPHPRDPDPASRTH
Procedure: Compounds were dissolved in 100% DMSO at 5 mM stock concentrations. […] HNE inhibition assays were performed in black flat-bottom 96-well microtiter plates. Briefly, a solution containing 200 mM Tris–HCl, pH 7.5, 0.01% bovine serum albumin, 0.05% Tween®-20, and 20 mU/mL of HNE (Calbiochem) was added to wells containing different concentrations of each compound. The reaction was initiated by addition of 25 μM elastase substrate (N-methylsuccinyl-Ala-Ala-Pro-Val-7-amino-4-methylcoumarin, Calbiochem) in a final reaction volume of 100 μL/well. Kinetic measurements were obtained every 30 s for 10 min at 25°C using a Fluoroskan Ascent FL fluorescence microplate reader (Thermo Electron, MA) with excitation and emission wavelengths of 355 and 460 nm, respectively. For all compounds tested, the concentration of inhibitor that caused 50% inhibition of the enzymatic reaction (IC50) was calculated by plotting % inhibition vs. logarithm of inhibitor concentration (at least six points).

[2] = Spontaneous hydrolysis (chemical stability) in aqueous phosphate buffer; assay type: physicochemical; conditions: for half-life: phosphate buffer, pH 7.3, 0.05 M phosphate buffer, read-out: t1/2 for the spontaneous hydrolysis (converted); for half-life / t1/2 for the spontaneous hydrolysis: pH 7.3, 25°C; for t1/2 for the spontaneous hydrolysis: 0.05 M phosphate buffer
Procedure: Spontaneous hydrolysis of selected derivatives was evaluated at 25°C in 0.05 M phosphate buffer, pH 7.3. Kinetics of compound hydrolysis was monitored by measuring changes in absorbance spectra over time using a SpectraMax ABS Plus microplate spectrophotometer (Molecular Devices, Sunnyvale, CA). Absorbance (At) at the characteristic absorption maxima of each compound was monitored over time until no further absorbance decreases occurred (A∞). Using these measurements, we created semilogarithmic plots of log(At-A∞) vs. time, and k′ values were determined from the slopes of these plots. Half-conversion times were calculated using t1/2 = 0.693/k′.
Spontaneous hydrolysis rates of the inhibitors were measured in phosphate buffer at pH 7.3 and 25°C.

[3] = molecular target: T1, HNE (human neutrophil elastase); test: Persistence of HNE inhibition over extended period of time (16 h); assay type: biochemical; conditions: monitored during 16 h in the presence of 10 μM inhibitor
Source text: The relatively high enzymatic stability of HNE allowed us to evaluate reversibility of the enzyme inhibition over time.

[4] = mean ± SD of three independent experiments, read-out: IC50 (HNE inhibitory activity)
[5] = restated in Table 5 beside docking geometry, read-out: IC50

| IC50 [1, 4] | half-life [2] [h] | Remaining HNE activity [3] [%] | melting point [°C] | t1/2 for the spontaneous hydrolysis [2] [h] | IC50 [1, 5] [nM] | SMILES | Chemical stability in aqueous buffer ([2]; data not shown) |
| --- | --- | --- | --- | --- | --- | --- | --- |
| 43 ± 14 nM | 2.5 | 26.2 ± 3.4 | 164 to 167 | – | – | Cc1noc(-c2cn(S(=O)(=O)c3ccc(OC(=O)C(C)(C)C)cc3)c3ncccc23)n1 [Compound 3j, 4-{[3-(3-Methyl-1,2,4-oxadiazol-5-yl)-1H-pyrrolo[2,3-b]pyridin-1-yl]sulfonyl}phenyl pivalate] | – |
| < 100 nM and 49 nM | > 9 | 2.0 ± 0.4 | 133 to 136 | 14.4 | – | CC(C)(C)C(=O)Oc1ccc(S(=O)(=O)n2cc(C#N)c3ccccc32)cc1 [Compound 3c, 4-[(3-Cyano-1H-indol-1-yl)sulfonyl]phenyl pivalate] | – |
| 394 ± 38 nM | 1.5 | – | 162 to 165 | – | – | Cn1nc(C#N)c2cc(NS(=O)(=O)c3ccc(OC(=O)C(C)(C)C)cc3)ccc21 [Compound 7c, 4-[N-(3-Cyano-1-methyl-1H-indazol-5-yl)sulfamoyl]phenyl pivalate] | – |
| < 100 nM and 30 nM | > 9 | 5.5 ± 1.8 | 118 to 121 | 9.6 | 30 | CCOC(=O)c1cn(S(=O)(=O)c2ccc(OC(=O)C(C)(C)C)cc2)c2ccccc12 [Compound 3a, Ethyl 1-{[4-(pivaloyloxy)phenyl]sulfonyl}-1H-indole-3-carboxylate] | – |
| – | 5.8 | – | – | – | – | Cc1c(-c2ccccc2)c(=O)on1S(=O)(=O)c1ccc(OC(=O)C(C)(C)C)cc1 [G, reference compound] | excellent chemical stability in aqueous buffer |
| 78 ± 18 nM | 1.9 | 9.2 ± 2.5 | 121 to 123 | – | – | CC(C)(C)C(=O)Oc1ccc(S(=O)(=O)n2nc(C3CC3)c(=O)c3ccccc32)cc1 [Compound 9b, 4-[(3-Cyclopropyl-4-oxocinnolin-1(4H)-yl)sulfonyl]phenyl pivalate] | – |
| 135 ± 37 nM | 1.3 | – | 135 to 138 | – | – | CC(C)(C)C(=O)Oc1ccc(S(=O)(=O)n2nc(C(F)(F)F)c3cccnc32)cc1 [Compound 3k, 4-{[3-(Trifluoromethyl)-1H-pyrazolo[3,4-b]pyridin-1-yl]sulfonyl}phenyl pivalate] | – |
| < 100 nM and 86 nM | > 9 | 9.1 ± 2.5 | 130 to 133 | 16.5 | 86 | CCOC(=O)c1nn(C)c2ccc(NS(=O)(=O)c3ccc(OC(=O)C(C)(C)C)cc3)cc12 [Compound 7d, Ethyl 1-methyl-5-{[4-(pivaloyloxy)phenyl]sulfonamido}-1H-indazole-3-carboxylate] | – |
| 460 ± 120 nM | 5.8 | – | 180 to 182 | – | 460 | CCOC(=O)c1nn(C(=O)c2cccc(C)c2)c2ccc(NS(=O)(=O)c3ccc(OC(=O)C(C)(C)C)cc3)cc12 [Compound 7e, Ethyl 1-(3-methylbenzoyl)-5-{[4-(pivaloyloxy)phenyl]sulfonamido}-1H-indazole-3-carboxylate] | – |
| 290 ± 40 nM | – | – | 166 to 168 | – | – | CC(C)(C)C(=O)Oc1ccc(S(=O)(=O)n2cc(-c3ccccc3)c(=O)o2)cc1 [Compound 11, 4-[(5-Oxo-4-phenylisoxazol-2(5H)-yl)sulfonyl]phenyl Pivalate] | – |
| < 100 nM and 15 nM | > 9 | 5.9 ± 1.2 | 132 to 135 | 10.5 | – | CCOC(=O)c1nn(S(=O)(=O)c2ccc(OC(=O)C(C)(C)C)cc2)c2ccccc12 [Compound 3f, Ethyl 1-{[4-(pivaloyloxy)phenyl]sulfonyl}-1H-indazole-3-carboxylate] | – |
| 93 ± 27 nM | 0.4 | 41.7 ± 3.2 | 183 to 186 | – | – | CC(C)(C)C(=O)Oc1ccc(S(=O)(=O)n2nc(C#N)c3cc([N+](=O)[O-])ccc32)cc1 [Compound 3e, 4-[(3-Cyano-5-nitro-1H-indazol-1-yl)sulfonyl]phenyl pivalate] | – |
| 5200 ± 140 nM | 5.3 | – | 172 to 175 | – | 5200 | CCOC(=O)c1cn(C(=O)c2cccc(C)c2)c2ccc(NS(=O)(=O)c3ccc(OC(=O)C(C)(C)C)cc3)cc12 [Compound 7b, Ethyl 1-(3-methylbenzoyl)-5-{[4-(pivaloyloxy)phenyl]sulfonamido}-1H-indole-3-carboxylate] | – |
| – | – | 3.7 ± 0.1 | – | – | – | CC(C)(C)C(=O)Oc1ccc(S(=O)(=O)Nc2ccccc2C(=O)NCC(=O)O)cc1 [Sivelestat, reference compound] | – |
| 19 ± 5 nM | 2.1 | 2.2 ± 0.1 | 116 to 119 | – | – | CC(C)(C)C(=O)Oc1ccc(S(=O)(=O)n2ncc(=O)c3ccccc32)cc1 [Compound 9a, 4-[(4-Oxocinnolin-1(4H)-yl)sulfonyl]phenyl pivalate] | – |
| 233 ± 76 nM | 6.8 | – | – | – | – | CCOC(=O)c1cn(C)c2ccc(NS(=O)(=O)c3ccc(OC(=O)C(C)(C)C)cc3)cc12 [Compound 7a, Ethyl 1-methyl-5-{[4-(pivaloyloxy)phenyl]sulfonamido}-1H-indole-3-carboxylate] | – |
| 76 ± 11 nM | 6.1 | 4.3 ± 0.3 | 155 to 158 | – | – | CC(C)(C)C(=O)Oc1ccc(S(=O)(=O)n2nc(C#N)c3ccccc32)cc1 [Compound 3d, 4-[(3-Cyano-1H-indazol-1-yl)sulfonyl]phenyl pivalate] | – |
| 62 ± 12 nM | 6.4 | 8.6 ± 1.7 | – | – | – | Cc1cccc(C(=O)Nc2nn(S(=O)(=O)c3ccc(OC(=O)C(C)(C)C)cc3)c3ccccc23)c1 [Compound 4, 4-{[3-(3-Methylbenzamido)-1H-indazol-1-yl]sulfonyl}phenyl pivalate] | – |
| 23 ± 10 nM | 1.8 | 20.1 ± 1.6 | 185 to 188 | – | – | CCOC(=O)c1nn(S(=O)(=O)c2ccc(OC(=O)C(C)(C)C)cc2)c2ccc([N+](=O)[O-])cc12 [Compound 3g, Ethyl 5-nitro-1-{[4-(pivaloyloxy)phenyl]sulfonyl}-1H-indazole-3-carboxylate] | – |
| 25 ± 8 nM | 6.1 | 20.5 ± 1.7 | 170 to 173 | – | – | CCOC(=O)c1cn(S(=O)(=O)c2ccc(OC(=O)C(C)(C)C)cc2)c2ccc([N+](=O)[O-])cc12 [Compound 3b, Ethyl 5-nitro-1-{[4-(pivaloyloxy)pheny]sulfonyl}-1H-indole-3-carboxylate] | – |
| 55 ± 12 nM | 1.8 | 2.6 ± 0.5 | 176 to 179 | – | – | CC(C)(C)C(=O)Oc1ccc(S(=O)(=O)n2cc(C#N)c3cccnc32)cc1 [Compound 3i, 4-[(3-Cyano-1H-pyrrolo[2,3-b]pyridin-1-yl]sulfonyl)phenyl pivalate] | – |
| 66 ± 9 nM | 3.5 | 4.5 ± 1.7 | 166 to 169 | – | – | CC(C)(C)C(=O)Oc1ccc(S(=O)(=O)n2nc(C#N)c3cccnc32)cc1 [Compound 3l, 4-[(3-Cyano-1H-pyrazolo[3,4-b]pyridin-1-yl)sulfonyl]phenyl pivalate] | – |
